This note sets out measurements from patent publication US8916702B2 (priority 2012, dated 2014).

One may read the EC50 as the concentration needed to bring the measured effect to its halfway point.

The test system of the test is HCV pseudoparticles (genotype 1a HCV E1 and E2 envelope, H77C isolate). Put plainly: microbe, parasite or virus in culture. In kind it is cell-based. The conditions noted are these: Hepatitis C virus.
Setting [1] is: Huh-7, 48 h, read-out: Activity (EC50 class), HCV pseudoparticle infection of Huh7 cells, luciferase 2 days after infection, EC50 expressed as class A/B.
Setting [2] is: Huh-7, 48 h, HCV pseudoparticles (genotype 1a, H77C) in Huh7 cells, average of duplicate, luciferase 2 days after infection.
Where [3] appears, read: Huh-7, read-out: Activity (EC50 class), HCV pseudoparticles (genotype 1a, H77C) in Huh7 cells, EC50 expressed as class A/B.
Setting [4] is: Huh-7, 48 h, read-out: Activity (EC50 class), HCV pseudoparticles, Huh7 cells, luciferase 2 days after infection, average of duplicates.
The mark [5] stands for this setting: Huh-7, 48 h, HCV pseudoparticle infection of Huh7 cells, luciferase 2 days after infection, average of duplicates.

SMILES strings stand for the structures. Like-named read-outs stand apart in the source and are kept apart here.

Take `O=C(NCCc1ccccc1)C(=O)NCC[C@H](NC(=O)c1ccc(Nc2nc(NC3(c4ccc(Cl)cc4)CC3)nc(OCC(F)(F)F)n2)cc1)C(=O)O` [Compound 1328]: the concentration giving a half-maximal response (EC50) under setting [1] lay in the range of 0.01 to 10 nM.

With `CC(C)(CNC(=O)C(=O)NC1CC1)CNC(=O)c1ccc(Nc2nc(NC3(c4ccc(Cl)cc4)CC3)nc(OCC(F)(F)F)n2)cc1` [Compound 3066], the half-maximal effective concentration (EC50) runs as follows: under setting [2], 0.032 nM; under setting [3], 0.01 to 10 nM.

On to `COC(=O)[C@H](CCNC(=O)C(=O)Nc1ccc(OC2CCOCC2)cc1)NC(=O)c1ccc(Nc2nc(NC3(c4ccc(Cl)cc4)CC3)nc(OCC(F)(F)F)n2)cc1` [Compound 3325], for which the EC50 is, setting by setting: under setting [2], 2.4 nM; under setting [3], 0.01 to 10 nM.

Consider `CC(C)(CNC(=O)C(=O)Nc1ccc(Cl)c(F)c1)CNC(=O)c1ccc(Nc2nc(NC3(c4ccc(Cl)cc4)CC3)nc(OCC(F)(F)F)n2)cc1` [Compound 3071], for which the EC50 under setting [3] lay within 0.01 to 10 nM.

Consider `O=C(NC[C@H](NC(=O)c1ccc(Nc2nc(NC3(c4ccc(Cl)cc4)CC3)nc(OCC(F)(F)F)n2)cc1)C(=O)O)C(=O)Nc1cccc(Oc2ccccc2)c1` [Compound 3750], for which the EC50 under setting [4] fell in the range of 0.01 to 10 nM.

`COC(=O)[C@H](CNC(=O)C(=O)Nc1cccc(S(=O)(=O)c2ccccc2)c1)NC(=O)c1ccc(Nc2nc(NC3(c4ccc(Cl)cc4)CC3)nc(OCC(F)(F)F)n2)cc1` [Compound 3701]: the EC50 under setting [4] was in the range of 0.01 to 10 nM.

Regarding `CC(C)(CNC(=O)C(N)=O)CNC(=O)c1ccc(Nc2nc(NC3(c4ccc(Cl)cc4)CC3)nc(OCC(F)(F)F)n2)cc1F` [Compound 3388, N^1-(3-(4-((4-((1-(4-chlorophenyl)cyclopropyl)amino)-6-(2,2,2-trifluoroethoxy)-1,3,5-triazin-2-yl)amino)-2-fluorobenzamido)-2,2-dimethylpropyl)oxalamide], the EC50 reads like this: under setting [2], 0.013 nM; under setting [3], 0.01 to 10 nM.

On to `CN(C(=O)C(=O)NCC(C)(C)CNC(=O)c1ccc(Nc2nc(NC3(c4ccc(Cl)cc4)CC3)nc(OCC(F)(F)F)n2)cc1)c1ccc(F)cc1` [Compound 1599], for which, under setting [1], the concentration for a half-maximal effect (EC50) lay within 0.01 to 10 nM.

As to `CCC(CC)NC(=O)C(=O)NCCC(NC(=O)c1ccc(Nc2nc(NC3(c4ccc(Cl)cc4)CC3)nc(OCC(F)(F)F)n2)cc1)C(=O)OC` (centres unmarked) [Compound 1106], the EC50 under setting [1] fell in the range of 0.01 to 10 nM.

On to `COCC(NC(=O)C(=O)NCC[C@H](NC(=O)c1ccc(Nc2nc(NC3(c4ccc(Cl)cc4)CC3)nc(OCC(F)(F)F)n2)cc1)C(=O)O)C1CC1` (some centres unmarked) [Compound 1441], for which the 50% effective concentration (EC50) under setting [1] was 0.01 to 10 nM.

`C#Cc1cccc(NC(=O)C(=O)NC[C@H](NC(=O)c2ccc(Nc3nc(NC4(c5ccc(Cl)cc5)CC4)nc(OCC(F)(F)F)n3)cc2)C(=O)Cl)c1` [Compound 3746]: the EC50 under setting [4] is 0.01 to 10 nM.

On to `CC(CNC(=O)C(=O)Nc1ccc(F)cc1)CNC(=O)c1ccc(Nc2nc(NC3(c4ccc(Cl)cc4)CC3)nc(OCC(F)(F)F)n2)cc1` (centres unmarked) [Compound 3335], for which the half-maximal effective concentration (EC50) under setting [3] lay within 0.01 to 10 nM.

Turning to `Cc1noc2ccc(NC(=O)C(=O)NCC(C)(C)CNC(=O)c3ccc(Nc4nc(NC5(c6ccc(Cl)cc6)CC5)nc(OCC(F)(F)F)n4)cc3F)cc12` [Compound 3565], the concentration giving a half-maximal response (EC50) under setting [3] fell in the range of 0.01 to 10 nM.

For `Cc1cccc(NC(=O)C(=O)NCC(C)(C)CNC(=O)c2ccc(Nc3nc(NC4(c5ccc(Cl)cc5)CC4)nc(OCC(F)(F)F)n3)cc2)c1` [Compound 1597], the EC50 under setting [1] is 0.01 to 10 nM.

With `O=C(NCC[C@H](NC(=O)c1ccc(Nc2nc(NC3(c4ccc(Cl)cc4)CC3)nc(OCC(F)(F)F)n2)cc1)C(=O)O)C(=O)NCC1CC1(Cl)Cl` (some centres unmarked) [Compound 1445], the EC50 under setting [1] lay in the range of 0.01 to 10 nM.

With `CC(CNC(=O)C(=O)N1CCCCC1)CNC(=O)c1ccc(Nc2nc(NC3(c4ccc(Cl)cc4)CC3)nc(OCC(F)(F)F)n2)cc1` (centres unmarked) [Compound 3475], the concentration giving a half-maximal response (EC50) under setting [3] was in the range of 0.01 to 10 nM.

Turning to `O=C(NCC[C@H](NC(=O)c1ccc(Nc2nc(NC3(c4ccc(Cl)cc4)CC3)nc(OCC(F)(F)F)n2)cc1)C(=O)O)C(=O)NCC1(C(=O)O)CC1` [Compound 1447], the concentration giving a half-maximal response (EC50) under setting [5] came to 97.7 nM and the EC50 under setting [1] fell in the range of 10 to 1000 nM.

Take `COc1ccc2nc(NC(=O)C(=O)NCC(C)(C)CNC(=O)c3ccc(Nc4nc(NC5(c6ccc(Cl)cc6)CC5)nc(OCC(F)(F)F)n4)cc3)sc2n1` [Compound 3803]: the concentration for a half-maximal effect (EC50) under setting [4] was 0.01 to 10 nM.

As to `O=C(NCCC(NC(=O)c1ccc(Nc2nc(NC3(c4ccc(Cl)cc4)CC3)nc(OCC(F)(F)F)n2)cc1)C(=O)O)C(=O)Nc1ccc(Cn2cncn2)cc1` (centres unmarked) [Compound 3520], the EC50 under setting [3] is 0.01 to 10 nM.

For `COC(=O)[C@H](CCNC(=O)C(=O)NCCc1cccnc1)NC(=O)c1ccc(Nc2nc(NC3(c4ccc(Cl)cc4)CC3)nc(OCC(F)(F)F)n2)cc1` [Compound 1316], the EC50 is 0.57 nM under setting [5] and 0.01 to 10 nM under setting [1].

With `COC(=O)[C@H](CNC(=O)C(=O)NCCc1c[nH]cn1)NC(=O)c1ccc(Nc2nc(NC3(c4ccc(Cl)cc4)CC3)nc(OCC(F)(F)F)n2)cc1` [Compound 1295], the concentration giving a half-maximal response (EC50) under setting [1] was 10 to 1000 nM.

With `CC(C)(CNC(=O)C(=O)Nc1nc2ccc(OC(F)(F)F)cc2s1)CNC(=O)c1ccc(Nc2nc(NC3(c4ccc(Cl)cc4)CC3)nc(OCC(F)(F)F)n2)cc1` [Compound 3823], the 50% effective concentration (EC50) under setting [4] fell in the range of 0.01 to 10 nM.

As for `COC(=O)[C@H](CCNC(=O)C(=O)Nc1ccc(F)c(F)c1F)NC(=O)c1ccc(Nc2nc(NC3(c4ccc(Cl)cc4)CC3)nc(OCC(F)(F)F)n2)cc1` [Compound 1508], under setting [1], the concentration for a half-maximal effect (EC50) lay within 0.01 to 10 nM.

Consider `NC(=O)NCc1ccc(NC(=O)C(=O)NC[C@H](NC(=O)c2ccc(Nc3nc(NC4(c5ccc(Cl)cc5)CC4)nc(OCC(F)(F)F)n3)cc2)C(=O)O)cc1` [Compound 3281], for which the EC50 runs as follows: under setting [2], 1.29 nM; under setting [3], 0.01 to 10 nM.

For the compound `COC(=O)[C@H](CNC(=O)C(=O)NCC1CCc2ccccc21)NC(=O)c1ccc(Nc2nc(NC3(c4ccc(Cl)cc4)CC3)nc(OCC(F)(F)F)n2)cc1` (some centres unmarked) [Compound 1303], the EC50 under setting [1] was 0.01 to 10 nM.

On to `Cc1noc2ccc(NC(=O)C(=O)NCC(C)(C)CNC(=O)c3ccc(Nc4nc(NC5(c6ccc(Cl)cc6)CC5)nc(OCC(F)(F)F)n4)cc3)cc12` [Compound 3339], for which, under setting [3], the EC50 is 0.01 to 10 nM.

With `Cn1cnnc1-c1ccc(NC(=O)C(=O)NCC(C)(C)CNC(=O)c2ccc(Nc3nc(NC4(c5ccc(Cl)cc5)CC4)nc(OCC(F)(F)F)n3)cc2)cc1` [Compound 1601], the concentration giving a half-maximal response (EC50) is, setting by setting: under setting [5], 0.03 nM; under setting [1], 0.01 to 10 nM.

Take `Cc1cc(C)n(CC2(CNC(=O)C(=O)NCC[C@H](NC(=O)c3ccc(Nc4nc(NC5(c6ccc(Cl)cc6)CC5)nc(OCC(F)(F)F)n4)cc3)C(=O)O)CC2)n1` [Compound 1427]: the EC50 under setting [1] was in the range of 0.01 to 10 nM.

Take `CC(C)(CNC(=O)C(N)=O)CNC(=O)c1ccc(Nc2nc(NC3(c4ccc(F)cc4)CC3)nc(OCC(F)(F)F)n2)cc1` [Compound 3247]: the EC50 under setting [3] is 0.01 to 10 nM.

Take `CC(C)(CNC(=O)C(=O)Nc1ccc(-c2ccc(C(F)(F)F)cc2)cc1)CNC(=O)c1ccc(Nc2nc(NC3(c4ccc(Cl)cc4)CC3)nc(OCC(F)(F)F)n2)cc1` [Compound 1594]: the EC50 was 0.05 nM under setting [5] and 0.01 to 10 nM under setting [1].

Take `COC(=O)[C@H](CNC(=O)C(=O)Nn1cnnc1)NC(=O)c1ccc(Nc2nc(NC3(c4ccc(Cl)cc4)CC3)nc(OCC(F)(F)F)n2)cc1` [Compound 1243]: the EC50 under setting [1] was 10 to 1000 nM.

Consider `CC(C)(CNC(=O)C(=O)NCc1cccc(F)c1)CNC(=O)c1ccc(Nc2nc(NC3(c4ccc(Cl)cc4)CC3)nc(OCC(F)(F)F)n2)cc1` [Compound 3004], for which the EC50 under setting [3] lay in the range of 0.01 to 10 nM.

For `O=C(NC[C@H](NC(=O)c1ccc(Nc2nc(NC3(c4ccc(Cl)cc4)CC3)nc(OCC(F)(F)F)n2)cc1)C(=O)Cl)C(=O)Nc1cccc(-c2c[nH]cn2)c1` [Compound 3787], under setting [4], the half-maximal effective concentration (EC50) was in the range of 0.01 to 10 nM.
